Tests used:
[1] = administered orally to patients at about 300-600 mg/day; cited from earlier work
[2] = oral administration to rats; cited from earlier work
[3] = molecular target: T1, β1-35 peptide (Homo sapiens, UniProt P05067); assay: β-amyloid protein aggregation inhibition by SDS-PAGE (Example 1); assay type: biochemical; conditions: drug agent 100 µg/ml; β1-35 peptide 2 mg/ml; room temperature; control and methanol solutions aggregated by the 7th day
T1 construct: made in house; host or cells: chemical solid-phase synthesis (Fmoc)
Text: When synthesized β-amyloid protein is subjected to SDS-PAGE, a 3-4 kDa band due to the peptide monomer is observed. However, when the protein begins to aggregate, this monomer band becomes thinner and a smear is observed at the high molecular end (Tomiyama, et al. 1994, J. Biol. Chem. 269, 10205-10208). The inhibitory activity of a drug agent against β-amyloid protein aggregation may be determined by measuring the aggregation period of β-amyloid in admixture with the drug agent based on the decrease in peptide monomer or appearance of smearing observed with SDS-PAGE.
Specifically, 10 µl of solution is taken from a reagent solution containing β-amyloid protein and a drug agent, an equivalent of a sample buffer for electrophoresis (20 mM Tris-HCl buffer, pH 6.8, 40% glycerin, 2% SDS, 2% β-mercaptoethanol) is added thereto, and the mixture is boiled at 100°C for 5 minutes. Next, 10 µl of the solution is placed on a 15-25% polyacrylamide gradient gel for electrophoresis in a Tris-glycine buffered system. After completion of the electrophoresis, the gel is stained with 0.2% Coomassie brilliant blue solution and the amount of peptide monomer (band thickness) and presence of smearing is observed. […]

T1 sequence (P05067 672-706): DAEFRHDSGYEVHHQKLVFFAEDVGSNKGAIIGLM

Question: Which results are given for `CO[C@H]1/C=C/O[C@@]2(C)Oc3c(C)c(O)c4c(O)c(c(/C=N/N5CCN(C)CC5)c(O)c4c3C2=O)NC(=O)/C(C)=C\C=C\[C@H](C)[C@H](O)[C@@H](C)[C@@H](O)[C@@H](C)[C@H](OC(C)=O)[C@@H]1C` [rifampicin, Rifampicin]?
Answer: maximum blood concentration [1]: about 10 µg/ml; LD₅₀ value [2]: 1720 mg/kg

Question: With `CO[C@H]1/C=C/O[C@@]2(C)Oc3c(C)c(O)c4c(O)c(cc(O)c4c3C2=O)NC(=O)/C(C)=C\C=C\[C@H](C)[C@H](O)[C@@H](C)[C@@H](O)[C@@H](C)[C@H](OC(C)=O)[C@@H]1C` [rifamycin SV, Rifamycin SV] as the compound, how does the “reduction in peptide monomer and appearance of smear (β1-35 peptide aggregation)” value [3] read?
Answer: no reduction in peptide monomer or smearing was observed up to the 14th day after dissolution

Question: For `COC1C=COC2(C)Oc3c(C)c(O)c4c(O)c(cc(OCC(=O)O)c4c3C2=O)NC(=O)C(C)=CC=CC(C)C(O)C(C)C(O)C(C)C(OC(C)=O)C1C` (stereo not shown) [rifamycin B, Rifamycin B], which “reduction in peptide monomer and appearance of smear (β1-35 peptide aggregation)” value [3] is on record?
Answer: no reduction in peptide monomer or smearing was observed up to the 14th day after dissolution
